According to patent US20200085979A1, “PRECISION MEDICINE THERANOSTICS AND DIAGNOSTICS A COMBINATION THEREOF” (priority 2018, published 2020):

Experiments:
[1] = test system: αvβ3 and αvβ5 integrin; experiment: comparison of the αvβ3 and αvβ5 integrin antagonist peptidomimetic with an αvβ3 integrin peptide in nude mice, same chelator and radionuclide; type: in vivo; conditions: versus αvβ3 integrin peptide
From the text: Embodiments of the present invention also utilize the therapeutic compounds of the invention in conjunction with a diagnostic. Compounds containing αvβ3/αvβ5 anti-integrin antagonist peptidomimetic, displaying a selective affinity for the HER2+ protein, vitronectin, fibronectin, tenascin, reelin, kindlin, talin or combination thereof for the diagnosis or prognosis of disorders using PET, SPECT and MRI or combinations by administering an effective amount of activity thereof to a subject, particularly for the diagnosis of diseases related to metastasis and angiogenesis such as breast cancer, lung cancer, ovarian cancer, gastric cancer, esophageal cancer, blood borne cancers, musculoskeletal tumors, melanoma, head and neck cancer, human glioma, cervical cancer, vascular restenosis, osteoporosis, rheumatoid arthritis. […] The compounds referred to may be radiotracers for nuclear medicine, such as the Gallium-68 or Fluorine-18, […], Copper-64, or Technetium-99m, covalently bound to a spacer, chelator, directly to the peptidomimetic, to a nanoparticle or to more than one amino acid unit of the peptidomimetic. Other radiotracers are those reported in the publication Radionuclide Peptide Cancer Therapy, edited by M. Chinol and G. Paganelli, Taylor and Francis CRC Press, 2006. […]

[2] = test system: HER2+ breast cancer; experiment: human PET study versus [18F] Fludeoxyglucose PET scan in an HER2+ breast cancer patient; type: in vivo

4-[2-(3,4,5,6-tetrahydropyrimidine-2-ylamino)ethyloxy]benzoyl-2-[N-(3-aminoneopenta-1-carbamyl)]-aminoethylsulfonyl-amino-β-alanine [integrin antagonist peptidomimetic]
affinity for the targeted organs relative to the comparator αvβ3 integrin peptide [1]: three to seven times better
tumors distant from the primary detected [2]: 25 tumors
